In patent US8637525B2, “Compounds for the reduction of beta-amyloid production” (Bristol-Myers Squibb Company, priority 2009, dated 2014):
Read-outs that look alike come from different tables or passages of the source.

Tested on: Aβ1-42 production
Assay: Cellular assay for inhibition of Aβ1-42 production (H4 APP751 SWE clone 8.20)
Assay type: cell-based
Conditions: H4 APP751 SWE clone 8.20 cells, 19 h incubation
In short: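 Compound-treated cells were incubated 19 h at 37 °C in 5% CO2. Aβ42 in the cell plate was detected overnight at 4 °C with an Aβ42 neoepitope antibody (565, Wallac-labelled, 0.8 ng/well) plus N-terminal antibody 26D6 (APC, 75 ng/well) in 40 mM Tris-HCl pH 7.4, 0.2% BSA. IC50s came from curve fitting.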

[1] = 19 h, class symbols, read-out: Activity Rating (Aβ42 cellular IC50)
[2] = 19 h, read-out: Activity Rating (Aβ42 cellular IC50), numeric value
[3] = class symbols, read-out: Activity Rating (Aβ42 cellular IC50)

Row | Compound | IC50 [1] | IC50 [3] | also measured
1 | COc1cc(Nc2nc3c(c(N4CCC(F)(F)CC4)n2)CCC3c2ccc(F)cc2)ccc1-n1cnc(Cl)c1 (stereo not drawn) [Example 39B, N-(4-(4-chloro-1H-imidazol-1-yl)-3-methoxyphenyl)-4-(4,4-difluoropiperidin-1-yl)-7-(4-fluorophenyl)-6,7-dihydro-5H-cyclopenta[d]pyrimidin-2-amine] | 100 to 1000 nM |  | 
2 | CNc1nc(Nc2ccc(-n3cnc(Cl)c3)c(OC)c2)nc2c1CCCC2(O)c1ccccc1 (stereo not drawn) [Example 178, 2-(4-(4-chloro-1H-imidazol-1-yl)-3-methoxyphenylamino)-4-(methylamino)-8-phenyl-5,6,7,8-tetrahydroquinazolin-8-ol] | 1.5 to 9.9 nM |  | 
3 | CCNc1nc(Nc2ccc(-n3cnc(Cl)c3)c(OC)c2)nc2c1COCC2c1ccc(C#N)cc1 (stereo not drawn) [Example 121B, 4-(2-(4-(4-chloro-1H-imidazol-1-yl)-3-methoxyphenylamino)-4-(ethylamino)-7,8-dihydro-5H-pyrano[4,3-d]pyrimidin-8-yl)benzonitrile] |  |  | IC50 [2]: 120 nM
4 | COc1cc(Nc2nc3c(c(N4CCC4)n2)CCC3c2ccc(OC(F)(F)F)cc2)ccc1-n1cnc(Cl)c1 (single isomer, unassigned) [Example 101B, 4-(azetidin-1-yl)-N-(4-(4-chloro-1H-imidazol-1-yl)-3-methoxyphenyl)-7-(4-(trifluoromethoxy)phenyl)-6,7-dihydro-5H-cyclopenta[d]pyrimidin-2-amine] |  | 10 to 100 nM | 
5 | CNc1nc(Nc2ccc(-n3cnc(C)n3)c(OC)c2)nc2c1CC[C@@]2(C)c1ccc(F)cc1 (single isomer, unassigned) [Example 265A] | 10 to 100 nM |  | 
6 | CCC1CCCN1c1nc(Nc2ccc(-n3cnc(Cl)c3)c(OC)c2)nc2c1CCC2c1ccc(F)cc1 (single isomer, unassigned) [Example 23, N-(4-(4-chloro-1H-imidazol-1-yl)-3-methoxyphenyl)-4-(2-ethylpyrrolidin-1-yl)-7-(4-fluorophenyl)-6,7-dihydro-5H-cyclopenta[d]pyrimidin-2-amine] |  | 10 to 100 nM | 
7 | COc1cc(Nc2nc3c(c(N4CC(F)(F)C4)n2)COCC3c2ccc(Cl)cc2)ccc1-n1cnc(Cl)c1 (single isomer, unassigned) [Example 66A, N-(4-(4-chloro-1H-imidazol-1-yl)-3-methoxyphenyl)-8-(4-chlorophenyl)-4-(3,3-difluoroazetidin-1-yl)-7,8-dihydro-5H-pyrano[4,3-d]pyrimidin-2-amine] |  | 100 to 1000 nM | 
8 | CCNc1nc(Nc2ccc(-n3cnc(Cl)c3)c(OC)c2)nc2c1CN(CC(F)F)CC2c1ccccc1 (stereo not drawn) [Example 197, N4-ethyl-N2-(3-methoxy-4-(4-chloro-1H-13-imidazol-1-yl)phenyl)-8-phenyl-6-(2,2-difluoroethyl)-5,6,7,8-tetrahydropyrido[4,3-d]pyrimidine-2,4-diamine] |  |  | IC50 (read-out: Activity Rating (Aβ42 cellular IC50), numeric value): 16 nM
9 | COc1cc(Nc2nc3c(c(N4CC(Cl)C4)n2)CCC3c2ccccc2)ccc1-n1cnc(Cl)c1 (stereo not drawn) [Example 181B, N-(4-(4-chloro-1H-imidazol-1-yl)-3-methoxyphenyl)-4-(3-chloroazetidin-1-yl)-7-phenyl-6,7-dihydro-5H-cyclopenta[d]pyrimidin-2-amine] |  |  | IC50 [2]: 50 nM
10 | CCNc1nc(Nc2ccc(-n3cnc(C)n3)c(F)c2)nc2c1CN(C(=O)C1CC1)CC2c1ccccc1 (stereo not drawn) [Example 143B, cyclopropyl(4-(ethylamino)-2-(3-fluoro-4-(3-methyl-1H-1,2,4-triazol-1-yl)phenylamino)-8-phenyl-7,8-dihydropyrido[4,3-d]pyrimidin-6(5H)-yl)methanone] |  |  | IC50 [2]: 430 nM
11 | Cc1ncnn1-c1ccc(Nc2nc3c(c(N4CC(F)(F)C4)n2)COCC3c2ccc(Cl)cc2)cc1F (stereo not drawn) [Example 68, 8-(4-chlorophenyl)-4-(3,3-difluoroazetidin-1-yl)-N-(3-fluoro-4-(5-methyl-1H-1,2,4-triazol-1-yl)phenyl)-7,8-dihydro-5H-pyrano[4,3-d]pyrimidin-2-amine] | 10 to 100 nM |  | 
12 | CNc1nc(Nc2ccc(-n3cnc(Cl)c3)c(OC)c2)nc2c1COCC2c1ccc(F)c(F)c1 (stereo not drawn) [Example 115A, N2-(4-(4-chloro-1H-imidazol-1-yl)-3-methoxyphenyl)-8-(3,4-difluorophenyl)-N4-methyl-7,8-dihydro-5H-pyrano[4,3-d]pyrimidine-2,4-diamine] |  | 1.5 to 9.9 nM | 
13 | CNc1nc(Nc2ccc(-n3cnc(Cl)c3)c(OC)c2)nc2c1CCC2c1cc(F)c(F)c(F)c1 (single isomer, unassigned) [Example 103A, N^2-(4-(4-chloro-1H-imidazol-1-yl)-3-methoxyphenyl)-N^4-methyl-7-(3,4,5-trifluorophenyl)-6,7-dihydro-5H-cyclopenta[d]pyrimidine-2,4-diamine] |  | 1.5 to 9.9 nM | 

Further lines, with some results ahead:

Row | IC50 [1] | IC50 [3] | Compound | also measured
14 | 1.5 to 9.9 nM |  | COc1cc(Nc2nc3c(c(N(C)C)n2)CCC3c2ccccc2)ccc1-n1cnc(Cl)c1 (stereo not drawn) [Example 4, N^2-(4-(4-Chloro-1H-imidazol-1-yl)-3-methoxyphenyl)-N^4,N^4-dimethyl-7-phenyl-6,7-dihydro-5H-cyclopenta[d]pyrimidine-2,4-diamine] | 
15 | 1.5 to 9.9 nM |  | COc1cc(Nc2nc(NC(C)C)c3c(n2)C(c2ccccc2)CC3)ccc1-n1cnc(Cl)c1 (stereo not drawn) [Example 10, N2-(4-(4-chloro-1H-imidazol-1-yl)-3-methoxyphenyl)-N4-isopropyl-7-phenyl-6,7-dihydro-5H-cyclopenta[d]pyrimidine-2,4-diamine] | 
16 | > 1000 nM |  | CNc1nc(Nc2ccc3[nH]c(C)cc3c2)nc2c1CCC2c1ccccc1 (stereo not drawn) [Example 249, N4-methyl-N2-(2-methyl-1H-indol-5-yl)-7-phenyl-6,7-dihydro-5H-cyclopenta[d]pyrimidine-2,4-diamine] | 
17 |  | 1.5 to 9.9 nM | CNc1nc(Nc2ccc(-n3cnc(C)n3)c(OC)c2)nc2c1COCC2c1ccc(Cl)cc1 (single isomer, unassigned) [Example 71A, 8-(4-chlorophenyl)-N^2-(3-methoxy-4-(3-methyl-1H-1,2,4-triazol-1-yl)phenyl)-N^4-methyl-7,8-dihydro-5H-pyrano[4,3-d]pyrimidine-2,4-diamine] | 
18 |  | 10 to 100 nM | COc1cc(Nc2nc(N[C@@H](C)C3CC3)c3c(n2)C(c2ccc(F)cc2)CC3)ccc1-n1cnc(Cl)c1 (single isomer, unassigned) [Example 50B] | 
19 |  | 10 to 100 nM | CNc1nc(Nc2ccc(-n3cnc(Cl)c3)c(OC)c2)nc2c1CCC2c1ccc(Cl)cc1 (single isomer, unassigned) [Example 94B, N^2-(4-(4-chloro-1H-imidazol-1-yl)-3-methoxyphenyl)-7-(4-chlorophenyl)-N^4-methyl-6,7-dihydro-5H-cyclopenta[d]pyrimidine-2,4-diamine] | 
20 | > 1000 nM |  | Cc1ccc(C(C)C)cc1Nc1nc(Nc2ccc(C#N)cc2)nc2c1CCC2c1ccccc1 (stereo not drawn) [Example 215A, 4-(4-(5-isopropyl-2-methylphenylamino)-7-phenyl-6,7-dihydro-5H-cyclopenta[d]pyrimidin-2-ylamino)benzonitrile] | 
21 | 10 to 100 nM |  | COc1cc(Nc2nc3c(c(N4CCC(N(C)C)C4)n2)CCC3c2ccc(F)cc2)ccc1-n1cnc(Cl)c1 (single isomer, unassigned) [Example 29A, N-(4-(4-chloro-1H-imidazol-1-yl)-3-methoxyphenyl)-4-(3-(dimethylamino)pyrrolidin-1-yl)-7-(4-fluorophenyl)-6,7-dihydro-5H-cyclopenta[d]pyrimidin-2-amine] | 
